Calls of active or inactive are those of the source. How the calls were made is not given here.
Target: TEM-1 beta-lactamase (Escherichia coli) (UniProt Q932Y6)
Test: concentration-dependent inhibition of TEM-1 enzyme – biochemical, epi-absorbance, IC50, counter-screen for dual metallo-beta-lactamase inhibitor project, late-stage follow-up (AID 2767)
Details: nitrocefin absorbance

Chain of TEM-1 beta-lactamase (Escherichia coli) (Q932Y6 1-286): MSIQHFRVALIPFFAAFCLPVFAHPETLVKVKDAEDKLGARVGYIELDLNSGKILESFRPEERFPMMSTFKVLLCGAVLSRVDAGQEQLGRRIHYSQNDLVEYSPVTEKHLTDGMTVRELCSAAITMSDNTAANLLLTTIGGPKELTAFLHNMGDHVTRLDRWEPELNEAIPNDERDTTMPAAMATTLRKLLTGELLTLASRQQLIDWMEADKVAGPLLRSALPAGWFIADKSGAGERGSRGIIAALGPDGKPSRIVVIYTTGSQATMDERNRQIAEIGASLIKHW

| SMILES | IC50 |
| --- | --- |
| [Hg+][c]1ccccc1 | > 59.6 µM (inactive) |
| Cc1cc[c]([Hg+])cc1 | > 59.6 µM (inactive) |
| CC(=O)Nc1cc[c]([Hg+])cc1 | > 59.6 µM (inactive) |
| O=C(O)c1ccc[c]([Hg+])c1 | > 59.6 µM (inactive) |
| O=C(O)c1cc[c]([Hg][Cl])cc1 | > 59.6 µM (inactive) |
| COc1cccc[c]1[Hg+] | > 59.6 µM (inactive) |

Reference: PubChem BioAssay AID2767 (The Scripps Research Institute Molecular Screening Center, 2010)
